Results on one compound are retold here after US20250263436A1, “BROAD-SPECTRUM ANTIVIRAL DRUG FOR ENTEROVIRUS, AND APPLICATION” (WUHAN INSTITUTE OF VIROLOGY, CHINESE ACADEMY OF SCIENCES, priority 2020, published 2025).

Structures are written as SMILES. Several values for one entry are separate records, joined by “and”; a condition that tells them apart may be missing. Equal entries are not always repeated.

Holding throughout (assay type): cell-based
One data set concerns 293T cells. Nature of the data set: Toxicity assay in 293T cells (CCK-8). The settings on record: 24 h. The procedure: (1) Different cells were plated in a 96-well plate at 100 μL per well.
(2) When the cells grew to a confluence of 70%-80%, the DMEM medium containing 10% serum was replaced with a DMEM medium containing 2% serum, and a certain concentration gradient of polypeptide RQ was added, so that the final concentrations of the polypeptide in the wells were 0.073242 μM, 0.146484 μM, 0.292969 μM, 0.585938 μM, 1.171875 μM, 2.34375 μM, 4.6875 μM, 9.375 μM, 18.75 μM, 37.5 μM, 75 μM, 150 μM, and 300 μM, respectively.
(3) The samples were collected 24 h after the addition of the polypeptide, and then 10 μL of live cell detection reagent CCK-8 was added to each well and mixed well.
(4) The plate was placed at 37° C. for 2 h.
(5) The absorbance value at OD450 was detected by a microplate reader.

Another data set has as its system CVA16. Nature of the data set: Inhibition of CVA16 in RD cells (viral RNA, qRT-PCR). The settings on record: anti-CVA16 in RD cells. The protocol:
(§1) (1) RD cells were plated in a 24-well plate.
(2) When the cells grew to a confluence of 70%-80%, the DMEM medium containing 10% serum was replaced with a DMEM medium containing 2% serum (the DMEM medium containing 2% serum was added in each well at an amount of 0.5 mL), and 5 μL of CVA16 virus of 1×10^6 PFU/mL was added to each well.
(3) After 1 h, different polypeptides with final concentrations of 0.3125 μM, 0.625 μM, 1.25 μM, 2.5 μM, and 5 μM were added respectively. The group without polypeptide added was used as a control.
(4) The samples were collected 24 h after the infection of CVA16 virus, and RNA was extracted with the total RNA extraction kit.
(§2) (5) The supernatant was discarded, then 350 μL of TRK lysate was added to each well, and the plate was put on a shaker for 5 min.
(§3) (6) 350 μL of 70% ethanol (DEPC) was added to each well, and then the plate was put on a shaker for 5 min.
(§4) (7) The solution in each well was transferred to a RNA extraction column for 1 min of centrifugation at 12000 g.
(§5) (8) The solution obtained in the recovery tube was reloaded on the column again for 1 min of centrifugation at 12000 g.
(§6) (9) RNA washing buffer 1 was added in the column for 30 s of centrifugation at 12000 g. […]
(14) 2 μL of RNA sample was subjected to a fluorescence quantitative experiment using the one step qRT-PCR kit.
A general note: Real-time PCR tracks product formation cycle by cycle.

Another data set concerns CVB3. Nature of the data set: Inhibition of CVB3 in RD cells (viral RNA, qRT-PCR). The following applies: inhibiting CVB3 in RD cells. The protocol: as §1
(2) When the cells grew to a confluence of 70%-80%, the DMEM medium containing 10% serum was replaced with a DMEM medium containing 2% serum (the DMEM medium containing 2% serum was added in each well at an amount of 0.5 mL), and 5 μL of CVB3 virus of 1×10^6 PFU/mL was added to each well.
(3) After 1 h, the polypeptides with final concentrations of 0.3125 μM, 0.625 μM, 1.25 μM, 2.5 μM, and 5 μM were added respectively. The group without polypeptide added was used as a control.
(4) The samples were collected 24 h after the infection of CVB3 virus, and RNA was extracted with the total RNA extraction kit.
as §2, §3, §4, §5, §6
(14) 2 μL of RNA sample was subjected to a fluorescence quantitative experiment using the one step qRT-PCR kit. […]

As usually defined, the IC50 is the concentration that inhibits the measured activity by half. Low values mean higher potency, high ones lower potency. As to `CC[C@H](C)[C@H](NC(=O)[C@H](C)NC(=O)[C@H](CO)NC(=O)[C@H](CCCNC(=N)N)NC(=O)[C@H](CC(N)=O)NC(=O)[C@H](CC(N)=O)NC(=O)[C@H](Cc1ccc(O)cc1)NC(=O)[C@H](CCC(=O)O)NC(=O)[C@H](CCCNC(=N)N)NC(=O)CNC(=O)[C@H](CO)NC(=O)CNC(=O)[C@H](CCCNC(=N)N)NC(=O)[C@H](CCCNC(=N)N)NC(=O)[C@H](CCCNC(=N)N)NC(=O)[C@H](CCC(N)=O)NC(=O)[C@H](CCCNC(=N)N)NC(=O)[C@H](CCCNC(=N)N)NC(=O)[C@H](CCCCN)NC(=O)[C@H](CCCCN)NC(=O)[C@H](CCCNC(=N)N)NC(=O)CNC(=O)[C@@H](N)Cc1ccc(O)cc1)C(=O)NCC(=O)N[C@@H](CC(N)=O)C(=O)N[C@H](C(=O)N[C@H](C(=O)N[C@@H](CCC(=O)O)C(=O)N[C@@H](C)C(=O)N[C@@H](CC(C)C)C(=O)N[C@@H](Cc1ccccc1)C(=O)N[C@@H](CCC(N)=O)C(=O)O)[C@@H](C)CC)[C@@H](C)O` [RQ], the “Viability of 293T cells” value is 100.4267% and 97.87% with 293T cells (Table 15 (third cell line of Example 9), RQ 0.073242 μM); 100.8922% and 100.9503% in the data set on 293T cells (Table 15, RQ 0.146484 μM); 102.4631% and 100.8922% in the data set with 293T cells (Table 15, RQ 0.292969 μM); 102.8123% and 101.6486% in the data set with 293T cells (Table 15, RQ 0.585938 μM); 115.4383% and 103.5687% with 293T cells (Table 15, RQ 1.171875 μM); 100.3685% and 102.8704% in the data set on 293T cells (Table 15, RQ 2.34375 μM). The “Viability of 293T cells” value in the data set with 293T cells (Table 15, RQ 4.6875 μM) was 99.96% and 100.0776%; with 293T cells (Table 15, RQ 9.375 μM), 99.96% and 94.03%; with 293T cells (Table 15, RQ 18.75 μM), 99.9%; with 293T cells (Table 15, RQ 37.5 μM), 101.1249% and 102.9286%; in the data set with 293T cells (Table 15, RQ 75 μM), 98.97% and 99.5%; in the data set on 293T cells (Table 15, RQ 150 μM) it was 63.83% and 64.4104%. The figures for the IC50 in the data set on CVA16 and with CVB3 were 2160 nM and 2310 nM, respectively.
